We go through seven compounds from ChEMBL document CHEMBL4177699, “Organoselenium compounds from purines: Synthesis of 6-arylselanylpurines with antioxidant and anticholinesterase activities and memory improvement effect” (Bioorg Med Chem, 2017).

Data set [1] deals with Mus musculus. Briefly: Toxicity in Swiss mouse assessed as impairment in locomotory activity at 10 mg/kg, ig treated immediately post-training measured up to 4 mins by open-field test. As to conditions: in vivo, po. The class given is organism-based.
A short description of data set [2]: Antioxidant activity assessed as ABTS radical scavenging activity at 10 uM after 30 mins (reference value: 100%). In kind it is functional.
Data set [3] relates to Mus musculus. Briefly: Toxicity in Swiss mouse assessed as impairment in exploratory behavior at 10 mg/kg, ig treated 30 mins before test session measured up to 4 mins by open-field test. In kind it is organism-based. The following applies: in vivo, po.
In data set [4] the test system is Mus musculus. Briefly: Toxicity in Swiss mouse assessed as impairment in exploratory behavior at 10 mg/kg, ig treated immediately post-training measured up to 4 mins by open-field test. The class given is organism-based. As to conditions: in vivo, po.
Data set [5] can be described thus: Antioxidant activity assessed as DPPH radical scavenging activity at 200 uM after 30 mins (reference value: 100%). In kind it is functional.
Data set [6] in a line: Antioxidant activity assessed as ABTS radical scavenging activity at 200 uM after 30 mins (reference value: 100%). The class given is functional.
Data set [7] concerns Mus musculus. The experiment in a line: Toxicity in Swiss mouse assessed as impairment in locomotory activity at 10 mg/kg, ig treated 30 mins before training measured up to 4 mins by open-field test. The following applies: in vivo, po. In kind it is organism-based.
Data set [8] has as its system Mus musculus. Briefly: Cognitive enhancement activity in Swiss mouse assessed as increase in step-through latency at 10 mg/kg, ig treated immediately post-training measured 24 hrs after training trial by passive avoidance test relative to control. In kind it is functional.
Data set [9] addresses T1, Acetylcholinesterase (Mus musculus) (UniProt P21836).
T1 sequence (whole entry): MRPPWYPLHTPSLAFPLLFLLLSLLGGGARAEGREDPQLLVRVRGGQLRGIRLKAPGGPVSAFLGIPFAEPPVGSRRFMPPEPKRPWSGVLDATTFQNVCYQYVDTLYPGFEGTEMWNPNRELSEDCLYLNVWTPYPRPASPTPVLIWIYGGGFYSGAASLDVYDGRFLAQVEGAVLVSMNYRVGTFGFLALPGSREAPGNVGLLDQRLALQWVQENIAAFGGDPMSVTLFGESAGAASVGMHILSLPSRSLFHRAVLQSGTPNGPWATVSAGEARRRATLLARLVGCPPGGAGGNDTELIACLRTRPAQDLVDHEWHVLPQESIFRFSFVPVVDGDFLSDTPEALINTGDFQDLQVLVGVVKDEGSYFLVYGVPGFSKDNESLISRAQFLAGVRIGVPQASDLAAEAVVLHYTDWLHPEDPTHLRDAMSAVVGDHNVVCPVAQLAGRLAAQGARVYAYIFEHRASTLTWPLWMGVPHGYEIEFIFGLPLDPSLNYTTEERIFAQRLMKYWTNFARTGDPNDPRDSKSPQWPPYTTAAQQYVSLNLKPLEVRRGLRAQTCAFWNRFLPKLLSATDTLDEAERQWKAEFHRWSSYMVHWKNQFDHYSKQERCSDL
The experiment in a line: Inhibition of AChE in Swiss mouse cerebral cortex homogenate using acetylthiocholine as substrate assessed as acetylthiocholine level per mg protein at 1 uM preincubated for 2 mins followed by substrate addition by DTNB based assay (reference value: 9.6 +/- 0.5 umol/hr).

The nature of data set [10]: Antioxidant activity assessed as ABTS radical scavenging activity at 1 uM after 30 mins (reference value: 100%). In kind it is functional.
Data set [11] can be described thus: Antioxidant activity assessed as DPPH radical scavenging activity at 100 uM after 30 mins (reference value: 100%). The class given is functional.
Data set [12] deals with T1, Acetylcholinesterase (Mus musculus). The experiment in a line: Inhibition of AChE in Swiss mouse cerebral cortex homogenate using acetylthiocholine as substrate assessed as acetylthiocholine level per mg protein at 1 uM preincubated for 2 mins followed by substrate addition by DTNB based assay relative to acetylthiocholine.
A short description of data set [13]: Antioxidant activity assessed as DPPH radical scavenging activity at 10 uM after 30 mins (reference value: 100%). The class given is functional. For orientation: DPPH is a stable violet radical that fades when it is reduced.
Data set [14] concerns the target T1, Acetylcholinesterase (Mus musculus). The experiment in a line: Inhibition of AChE in Swiss mouse cerebral cortex homogenate using acetylthiocholine as substrate assessed as acetylthiocholine level per mg protein at 100 uM preincubated for 2 mins followed by substrate addition by DTNB based assay (reference value: 9.6 +/- 0.5 umol/hr) (reference value: 9.6 +/- 0.5 umol/hr).

The subject of data set [15] is Mus musculus. Briefly: Cognitive enhancement activity in Swiss mouse assessed as step-through latency at 10 mg/kg, ig treated 30 mins before training measured 24 hrs after training trial by passive avoidance test. The class given is functional, organism-based.
In data set [16] the test system is Mus musculus. The experiment in a line: Toxicity in Swiss mouse assessed as impairment in locomotory activity at 10 mg/kg, ig treated 30 mins before test session measured up to 4 mins by open-field test. The class given is organism-based. The following applies: in vivo, po.
In data set [17] the test system is Mus musculus. The experiment in a line: Toxicity in Swiss mouse assessed as impairment in exploratory behavior at 10 mg/kg, ig treated 30 mins before training measured up to 4 mins by open-field test. As to conditions: in vivo, po. In kind it is organism-based.
The target of data set [18] is T1, Acetylcholinesterase (Mus musculus). Briefly: Inhibition of AChE in Swiss mouse cerebral cortex homogenate using acetylthiocholine as substrate assessed as acetylthiocholine level per mg protein at 200 uM preincubated for 2 mins followed by substrate addition by DTNB based assay (reference value: 9.6 +/- 0.5 umol/hr).
Data set [19] can be described thus: Antioxidant activity assessed as ABTS radical scavenging activity at 100 uM after 30 mins (reference value: 100%). The class given is functional.
Data set [20] is described as follows: Antioxidant activity assessed as DPPH radical scavenging activity at 1 uM after 30 mins (reference value: 100%). In kind it is functional.
In data set [21] the target is T1, Acetylcholinesterase (Mus musculus). Briefly: Inhibition of AChE in Swiss mouse cerebral cortex homogenate using acetylthiocholine as substrate assessed as acetylthiocholine level per mg protein at 10 uM preincubated for 2 mins followed by substrate addition by DTNB based assay (reference value: 9.6 +/- 0.5 umol/hr).
Data set [22] deals with Mus musculus. The experiment in a line: Cognitive enhancement activity in Swiss mouse assessed as increase in step-through latency at 10 mg/kg, ig treated 30 mins before test session measured 24 hrs after training trial by passive avoidance test relative to control. In kind it is functional.
Data set [23] concerns the target T1, Acetylcholinesterase (Mus musculus). Briefly: Inhibition of AChE in Swiss mouse cerebral cortex homogenate using acetylthiocholine as substrate assessed as acetylthiocholine level per mg protein at 200 uM preincubated for 2 mins followed by substrate addition by DTNB based assay relative to acetylthiocholine.

SMILES strings stand for the structures. Calls of active or inactive are those of the source. No cut-off for these calls is given here.

For `Fc1ccc([Se]c2ncnc3[nH]cnc23)cc1`, the Activity result with Mus musculus [1] is “Non-Toxic”; in [2] it was 101%; in the data set with Mus musculus [3] it was “Non-Toxic”; with Mus musculus [4], “Non-Toxic”; in data set [5], 98%; in data set [6], 96.9%. Besides, the Activity entry with Mus musculus [7] was “Non-Toxic”; with Mus musculus [8], 52%; in data set [9], 6.6 µmol/h; in [10], 99.7%; in [11] it was 98.6%; in data set [13] it was 99.4%. The Activity was 6.6 µmol/h in data set [14]; “Non-Toxic” in the data set on Mus musculus [16]; “Non-Toxic” with Mus musculus [17]; 6.6 µmol/h in [18]; 99.7% in data set [19]; 99.4% in data set [20]. For the same compound, the Activity is 6.5 µmol/h in data set [21] and 44% in the data set with Mus musculus [22]. In addition, in data set [12], the Imax was found to be 31.2%. In the data set with Mus musculus [15], the result was inactive.

In the case of `c1ccc([Se]c2ncnc3[nH]cnc23)cc1`, the Activity in data set [2] worked out at 98.8%; in data set [5], 90.1%; in data set [6], 86.5%; in [9], 7.8 µmol/h; in data set [10] it was 99.9%; in data set [11], 95.1%. In addition, the Activity in [13] amounted to 99.4%; in [14] it was 7.7 µmol/h; in data set [18] it was 7.6 µmol/h; in [19], 93.2%; in data set [20] it was 99.4%; in [21], 7.6 µmol/h.

As for `FC(F)(F)c1cccc([Se]c2ncnc3[nH]cnc23)c1`, the Activity in [2] was determined as 98.9%; in data set [5] it was 99%; in data set [6], 97.6%; in data set [9], 7.9 µmol/h; in data set [10], 99.4%; in data set [11], 99.4%. The Activity in data set [13] is 99.4%; in [14], 8.2 µmol/h; in [18] it was 8.2 µmol/h; in data set [19], 97.9%; in data set [20], 99.7%; in data set [21], 8.9 µmol/h.

With `COc1ccc([Se]c2ncnc3[nH]cnc23)cc1`, the Activity in [2] was found to be 98.1%; in [5], 97.5%; in data set [6], 93.5%; in data set [9], 10.4 µmol/h; in data set [10], 101%; in data set [11] it was 98.5%. Moreover, the Activity was determined as 99.7% in data set [13]; 11 µmol/h in data set [14]; 8.8 µmol/h in [18]; 97.1% in [19]; 99.8% in data set [20]; 11.3 µmol/h in data set [21].

Take `Cc1ccc([Se]c2ncnc3[nH]cnc23)cc1`: the Activity came out at 98% in data set [2]; 93% in data set [5]; 61.5% in data set [6]; 8.7 µmol/h in data set [9]; 100% in [10]; 96.3% in data set [11]. Also, the Activity in data set [13] worked out at 99.7%; in [14] it was 8.9 µmol/h; in data set [18], 8.9 µmol/h; in data set [19], 81.7%; in data set [20], 101%; in data set [21], 9.3 µmol/h.

As for `Clc1ccc([Se]c2ncnc3[nH]cnc23)cc1`, the Activity in data set [2] stood at 98.4%; in data set [5], 68%; in data set [6] it was 72.6%; in data set [9], 7.2 µmol/h; in data set [10], 99.5%; in [11], 85.9%. Further, the Activity in data set [13] stood at 98.8%; in data set [14], 7.8 µmol/h; in data set [18], 7.8 µmol/h; in [19], 86.5%; in data set [20] it was 100%; in data set [21] it was 7.3 µmol/h.

For `Cc1ccccc1[Se]c1ncnc2[nH]cnc12`, the Activity in data set [2] worked out at 96.9%; in data set [5], 98.7%; in [6] it was 94.8%; in data set [9], 7.9 µmol/h; in data set [10], 99.3%; in data set [11], 99.3%. Moreover, the Activity in data set [13] is 100%; in data set [14], 7.1 µmol/h; in [18], 6.3 µmol/h; in data set [19], 97.7%; in data set [20] it was 100%; in [21], 7.6 µmol/h. In [23], the Imax stood at 34.4%.
